In paper PMC9137622, “OPDAylation of Thiols of the Redox Regulatory Network In Vitro” (Antioxidants, 2022):

Columns and labels:
GRX-C2 = target: T1, GRX-C2 (Arabidopsis thaliana, UniProt Q9FNE2); test: HED assay, NADPH oxidation at […] nm; type: biochemical; conditions: 2 mM GSH, 0.7 mM HED, 1 µM GR, 0.1 µM GRX, pH 7.5, RT
T1 construct: gene GRXC2

GAPC2 = target: T2, GAPC2 (Arabidopsis thaliana, UniProt Q9FX54); test: NADH consumption at […] nm, PGK-coupled; type: biochemical; conditions: 8 mM 3-PGA, 4 mM ATP, 90 nM PGK, pH 7.8, RT
T2 construct: His10-tagged, E. coli, Ni-NTA
T2 sequence (Q9FX54 whole entry): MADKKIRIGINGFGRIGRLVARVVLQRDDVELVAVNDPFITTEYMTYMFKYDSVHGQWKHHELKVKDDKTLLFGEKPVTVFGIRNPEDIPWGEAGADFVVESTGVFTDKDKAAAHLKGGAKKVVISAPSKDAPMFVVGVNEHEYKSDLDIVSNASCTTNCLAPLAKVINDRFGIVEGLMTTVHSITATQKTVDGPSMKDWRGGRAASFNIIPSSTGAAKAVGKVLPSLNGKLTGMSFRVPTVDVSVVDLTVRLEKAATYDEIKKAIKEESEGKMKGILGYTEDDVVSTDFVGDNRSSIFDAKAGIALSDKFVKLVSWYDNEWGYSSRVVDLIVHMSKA

TRX-h3 = target: T3, TRX-h3 (Arabidopsis thaliana, UniProt Q42403); test: coupled GPXL8 H2O2 reduction, NADPH oxidation at […] nm; type: biochemical; conditions: covalent; 20 µM reduced protein preincubated with 150 µM OPDA 1 h, then 0.25 µM in NTRA/GPXL8 assay, pH 7.5
T3 construct: gene TRX3
T3 sequence (Q42403 1-118 limits assumed): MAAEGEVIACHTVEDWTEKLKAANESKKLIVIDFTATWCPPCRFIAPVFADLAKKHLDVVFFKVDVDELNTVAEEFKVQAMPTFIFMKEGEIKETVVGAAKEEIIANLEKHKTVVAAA

PRXIIB = target: T4, PRXIIB (Arabidopsis thaliana, UniProt Q9XEX2); test: coupled H2O2 reduction (GR/GSH/GRXC2), NADPH oxidation at […] nm; type: biochemical; conditions: 20 µM reduced PRXIIB preincubated with 150 µM OPDA 1 h, then 3 µM in assay, pH 7.5; weak effect
T4 sequence (Q9XEX2 1-162): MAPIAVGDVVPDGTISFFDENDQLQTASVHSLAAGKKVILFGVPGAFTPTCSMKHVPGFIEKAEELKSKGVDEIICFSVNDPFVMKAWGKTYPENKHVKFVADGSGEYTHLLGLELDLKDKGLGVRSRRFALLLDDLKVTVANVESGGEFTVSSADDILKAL

TRX-h5 [1] = target: T5, TRX-h5 (Arabidopsis thaliana, UniProt Q39241); test: HPLC depletion of free OPDA, mPEG-maleimide shift; type: binding; conditions: covalent; 200 µM OPDA, 50 or 100 µM reduced protein, pH 7.2, at least 2 h, RT
T5 construct: gene TRX5
T5 sequence (Q39241 1-118 limits assumed): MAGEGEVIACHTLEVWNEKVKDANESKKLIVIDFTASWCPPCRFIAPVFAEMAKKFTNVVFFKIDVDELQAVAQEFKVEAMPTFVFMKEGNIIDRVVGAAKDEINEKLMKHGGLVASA

TRX-m4 [2] = target: T6, TRX-m4 (Arabidopsis thaliana, UniProt Q9SEU6); test: HPLC depletion of free OPDA, mPEG-maleimide shift; type: binding; conditions: covalent; 200 µM OPDA, 50 or 100 µM reduced protein, pH 7.2, at least 2 h, RT
T6 construct: gene At3g15360; His-tagged, E. coli, Ni-NTA
T6 sequence (Q9SEU6 83-193): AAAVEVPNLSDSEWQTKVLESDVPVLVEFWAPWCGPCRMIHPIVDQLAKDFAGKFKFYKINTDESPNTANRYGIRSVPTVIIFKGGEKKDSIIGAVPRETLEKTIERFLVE

TRX-m4 [3] = target: T6, TRX-m4; test: coupled GPXL8 H2O2 reduction, NADPH oxidation at […] nm; type: biochemical; conditions: covalent; 20 µM reduced protein preincubated with 150 µM OPDA 1 h, then 5 µM in NTRA/GPXL8 assay, pH 7.5
TRX-h5 [4] = target: T5, TRX-h5; test: as above; type: biochemical; conditions: covalent; 20 µM reduced protein preincubated with 150 µM OPDA 1 h, then 0.25 µM in NTRA/GPXL8 assay, pH 7.5
TRX-f1 = target: T7, TRX-f1 (Arabidopsis thaliana, UniProt Q9XFH8); test: HPLC depletion of free OPDA, mPEG-maleimide shift; type: binding; conditions: covalent; 200 µM OPDA, 50 or 100 µM reduced protein, pH 7.2, at least 2 h, RT
T7 construct: gene At3g02730; His-tagged, E. coli, Ni-NTA
T7 sequence (Q9XFH8 58-178): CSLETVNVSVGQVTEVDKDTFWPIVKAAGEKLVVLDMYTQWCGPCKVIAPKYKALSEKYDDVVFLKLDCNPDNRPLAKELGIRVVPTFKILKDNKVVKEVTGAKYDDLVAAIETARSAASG

T1 sequence (Q9FNE2 whole entry): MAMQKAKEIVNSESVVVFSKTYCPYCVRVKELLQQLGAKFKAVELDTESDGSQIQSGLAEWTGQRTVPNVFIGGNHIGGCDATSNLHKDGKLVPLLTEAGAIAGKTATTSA

Which “HED assay, NADPH oxidation at 340 nm” value (GRX-C2) does the source give for OCCSSCCO [HED, hydroxyethyldisulfide] here?
The value was “HED assay to determine GRX-dependent reduction activity”.

NC(=O)C1=CN([C@@H]2O[C@H](COP(=O)(O)OP(=O)(O)OC[C@H]3O[C@@H](n4cnc5c(N)ncnc54)[C@H](O)[C@@H]3O)[C@@H](O)[C@H]2O)C=CC1 [NADH] was tested. Which “NADH consumption at 340 nm, PGK-coupled” value (GAPC2) did it give?
Its value is “coupled activity of phosphoglycerate kinase and GAPDH was measured as consumption of NADH”.

With CC/C=C\C[C@@H]1C(=O)C=C[C@@H]1CCCCCCCC(=O)O [OPDA, cis-(+)-12-oxophytodienoic acid] as the molecule, how does the inhibition (TRX-h3) read?
The inhibition was ~ 80%.

What about the inhibition (PRXIIB) of the same molecule?
Its inhibition is “OPDA seems to act directly on PRXIIB at a low level”.

What about the “HPLC depletion of free OPDA, mPEG-maleimide shift” value (TRX-h5 [1]) of the same molecule?
The value was “two thiols reacted with OPDA in the case of TRX-h3 and TRX-h5”.

What about the “HPLC depletion of free OPDA, mPEG-maleimide shift” value (TRX-m4 [2]) of the same molecule?
The value was “three thiols in the case of TRX-f1 and TRX-m4”.

And the inhibition (TRX-m4 [3])?
The inhibition was ~ 60%.

And the inhibition (TRX-h5 [4])?
The inhibition was ~ 80%.

What about the “HPLC depletion of free OPDA, mPEG-maleimide shift” value (TRX-f1) of the same molecule?
Its value is “three thiols in the case of TRX-f1 and TRX-m4”.
